Experimental data taken from ChEMBL document CHEMBL5335778, “Bench-to-bedside: Innovation of small molecule anti-SARS-CoV-2 drugs in China” (Eur J Med Chem, 2023).

Legend:
[1] = tested on: Ebolavirus; assay: Antiviral activity against EBOV infected in human Huh-7 cells assessed as reduction in viral replication; format: functional, organism-based; conditions: Orthoebolavirus
[2] = tested on: Respiratory syncytial virus; assay: Antiviral activity against Respiratory syncytial virus; format: functional, organism-based; conditions: human respiratory syncytial virus
[3] = Selectivity index, ratio of CC50 for cytotoxicity against human HEp-2 cells to IC50 for antiviral activity against RSV A2 infected in human HEp-2 cells
[4] = tested on: SARS-CoV; assay: Antiviral activity against SARS-CoV infected in Vero E6 cells assessed as reduction in viral replication measured after 48 hrs by qRT-PCR assay; format: functional, organism-based; conditions: Severe acute respiratory syndrome-related coronavirus, Vero C1008, 48 h
[5] = tested on: Middle East respiratory syndrome-related coronavirus; assay: Antiviral activity against MERS-CoV infected in HAE cells; format: functional, organism-based
[6] = in vitro; conditions: monkey, Vero E6 cells
[7] = tested on: SARS-CoV-2; assay: microbe, parasite or virus in culture; conditions: Severe acute respiratory syndrome coronavirus 2, Vero C1008
[8] = target: T1, Human immunodeficiency virus type 1 reverse transcriptase (Human immunodeficiency virus 1, UniProt Q72547); assay: Inhibition of HIV-1 reverse transcriptase associated RNA-dependent DNA polymerase
[9] = tested on: SARS-CoV-2; assay: Antiviral activity against SARS-CoV-2 Omicron assessed as reduction of viral growth; format: functional, organism-based; conditions: Severe acute respiratory syndrome coronavirus 2, Omicron
[10] = tested on: SARS-CoV-2; assay: Antiviral activity against SARS-CoV-2 B.1.1.7 Alpha infected in human Calu-3 cells assessed as inhibition of viral infection preincubated for 1 hr followed by viral infection measured after 48 hrs by Hoechst 33342 staining based analysis; format: functional, organism-based; conditions: Severe acute respiratory syndrome coronavirus 2, B.1.1.7, Calu-3
[11] = tested on: SARS-CoV-2; assay: Antiviral activity against SARS-CoV-2 […] infected in human 293TA cells assessed as reduction of viral growth measured after 48 hrs by luciferase assay; format: functional, organism-based; conditions: Severe acute respiratory syndrome coronavirus 2, 293TA
[12] = tested on: SARS-CoV-2; assay: Antiviral activity against SARS-CoV-2 […] B.1.617.2 delta infected in human 293TA cells assessed as reduction of viral growth measured after 48 hrs by luciferase assay; format: functional, organism-based; conditions: Severe acute respiratory syndrome coronavirus 2, 293TA
[13] = target: Hepatitis C virus NS5B RNA-dependent RNA polymerase (Hepatitis C virus, UniProt Q8JXU8); assay: Inhibition of Hepatitis C virus NS5B polymerase; set-up: species or system Hepacivirus hominis
[14] = target: T1, Human immunodeficiency virus type 1 reverse transcriptase; assay: Inhibition of wild type HIV-1 reverse transcriptase
[15] = tested on: Human immunodeficiency virus 2; assay: Antiviral activity against HIV-2 D194 infected in PBMC assessed as inhibition of viral growth; format: functional, organism-based; conditions: Human immunodeficiency virus 2, D194, PBMC
[16] = target: Human immunodeficiency virus type 1 protease (Human immunodeficiency virus 1, UniProt Q72874); assay: Inhibition of HIV-1 protease
[17] = tested on: SARS-CoV-2; assay: Antiviral activity against SARS-CoV-2 infected in African green monkey Vero E6 cells expressing TMPRSS2 assessed as reduction in virus-induced cytopathic effect measured after 48 hrs by cellular ATP assay; format: functional, organism-based; conditions: Severe acute respiratory syndrome coronavirus 2, Vero C1008, 48 h
[18] = tested on: SARS-CoV; assay: Antiviral activity against SARS-CoV-1 infected in African green monkey Vero E6 cells expressing TMPRSS2; format: functional, organism-based; conditions: Severe acute respiratory syndrome-related coronavirus, Vero C1008
[19] = Oral bioavailability in rat; format: ADME, organism-based; conditions: in vivo
[20] = tested on: Human immunodeficiency virus 1; assay: Antiviral activity against HIV-1 3B infected in human MT4 cells assessed as reduction in virus-induced cytopathic effect incubated for 5 days by MTT assay; format: functional, organism-based; conditions: Human immunodeficiency virus 1, 3B, MT4, 120 h
[21] = Cytotoxicity against human MT4 cells assessed as reduction in cell viability treated for 5 days by MTT assay; format: toxicity, cell-based; conditions: time 5 day
[22] = tested on: Human coronavirus OC43; assay: Antiviral activity against HCoV-OC43; format: functional, organism-based; conditions: Betacoronavirus 1
[23] = tested on: SARS-CoV-2; assay: Antiviral activity against SARS-CoV-2 assessed as inhibition of viral replication; format: functional, organism-based; conditions: Severe acute respiratory syndrome coronavirus 2
[24] = Oral bioavailability in beagle dog at 2 mg/kg; format: ADME, organism-based, Canis lupus familiaris; conditions: in vivo

Sequence of Hepatitis C virus NS5B RNA-dependent RNA polymerase (Q8JXU8 whole entry): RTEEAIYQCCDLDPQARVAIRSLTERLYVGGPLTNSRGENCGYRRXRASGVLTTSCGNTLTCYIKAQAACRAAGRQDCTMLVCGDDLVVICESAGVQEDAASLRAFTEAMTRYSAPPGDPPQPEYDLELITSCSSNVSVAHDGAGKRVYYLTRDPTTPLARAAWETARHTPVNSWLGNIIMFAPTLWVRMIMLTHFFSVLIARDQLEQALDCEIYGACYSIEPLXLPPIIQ

Compound: CCC(CC)COC(=O)[C@H](C)N[P@](=O)(OC[C@H]1O[C@@](C#N)(c2ccc3c(N)ncnn23)[C@H](O)[C@@H]1O)Oc1ccccc1
- EC50 [1]: 12 nM
- EC50 [2]: 21 nM
- selectivity ratio [3]: 395
- EC50 [4]: 69 nM
- EC50 [5]: 25 nM
- selectivity ratio [6]: > 100
- EC50 [7]: 770 nM

Compound: C[C@@]1(O)[C@H](O)[C@@H](CO)O[C@H]1n1ccc(N)nc1=O
- IC50 [8]: 1050 nM

Compound: O=C[C@H](C[C@@H]1CCNC1=O)NC(=O)[C@H](CC1CCCCC1)NC(=O)c1cc2ccccc2[nH]1
- EC50 [9]: 33 nM
- EC50 [10]: 390 nM
- EC50 [11]: 280 nM
- EC50 [12]: 270 nM

Compound: CC(C)(C)[C@H](NC(=O)C(F)(F)F)C(=O)N1C[C@H]2[C@@H]([C@H]1C(=O)N[C@H](C#N)C[C@@H]1CCNC1=O)C2(C)C
- EC50 [9]: 33 nM
- EC50 [10]: 820 nM
- EC50 [11]: 490 nM
- EC50 [12]: 780 nM

Compound: O=C[C@H](C[C@@H]1CCNC1=O)NC(=O)[C@H](Cc1ccccc1)NC(=O)c1cc2ccccc2[nH]1
- EC50 [9]: 33 nM

Compound: [N-]=[N+]=N[C@]1(CO)O[C@@H](n2ccc(N)nc2=O)[C@@H](O)[C@@H]1O
- IC50 [13]: 1280 nM
- EC50 [14]: 0.03 nM
- EC50 [15]: 0.018 nM
- IC50 [16]: 171 nM

Compound: [2H][C@](C(=O)N[C@@H](C)c1ccc(F)cc1)(c1cccnc1)N(C(=O)C(C)=O)c1ccc2c(c1)oc1ccccc12
- EC50 [9]: 33 nM

Compound: O=C(NCc1cccs1)[C@@H]1CN(C(=O)c2cccnc2)CCN1c1ccc(Cl)c(Cl)c1
- EC50 [9]: 33 nM

Compound: Cn1cnc(Cn2c(=O)[nH]/c(=N\c3cc4cn(C)nc4cc3Cl)n(Cc3cc(F)c(F)cc3F)c2=O)n1
- EC50 [17]: 350 nM
- EC50 [18]: 1900 nM

Compound: O=C[C@H](C[C@@H]1CCNC1=O)NC(=O)[C@@H]1[C@H]2CCC[C@H]2CN1C(=O)CCc1cc(F)cc(F)c1
- EC50 [9]: 33 nM

Compound: [2H]c1cc([C@]2(C#N)O[C@H](COC(=O)C(C)C)[C@@H](OC(=O)C(C)C)[C@H]2OC(=O)C(C)C)n2ncnc(N)c12
- bioavailability [19]: 49.9%
- EC50 [20]: 350 nM
- CC50 at 120 h [21]: 280000 nM

Compound: [N-]=[N+]=N[C@]1(COP(=O)(O)OP(=O)(O)OP(=O)(O)O)O[C@@H](n2ccc(N)nc2=O)[C@@H](F)[C@@H]1O
- EC50 [14]: 0.03 nM
- EC50 [15]: 0.018 nM
- EC50 [22]: 4300 nM
- EC50 [23]: 1200 nM
- bioavailability [24]: 82.7%
